Data: patent US10106544B2, “1,2-dihydro-3H-pyrrolo[1,2-C]imidazol-3-one derivatives and their use as antibacterial agents” (priority 2014, dated 2018)
Converted amounts (≈) assume the structure as drawn.

Legend:
Assay in all cases: Bacterial growth minimal inhibitory concentration (microdilution, cation-adjusted Mueller-Hinton Broth)
Assay type in all cases: cell-based
K. pneumoniae A-651 = settings: multiply-resistant strain (in particular quinolone-resistant); for MIC: Klebsiella pneumoniae, A651, read-out: MIC for K. Pneumoniae A-651
Experimental: (§1) Minimal Inhibitory Concentrations (MICs; mg/L) were determined in cation-adjusted Mueller-Hinton Broth by a microdilution method following the description given in “Methods for Dilution Antimicrobial Susceptibility Tests for Bacteria that Grow Aerobically”, Approved standard, 7th ed., a Clinical and Laboratory Standards Institute (CLSI) Document M7-A7, Wayne, Pa., USA (2006).
(§2) All Example compounds were tested against several Gram-positive and Gram-negative bacteria. […] K. pneumoniae A-651 is a multiply-resistant strain (in particular quinolone-resistant), while E. coli ATCC25922 and P. aeruginosa ATCC27853 are quinolone-sensitive strains.

E. coli ATCC25922 = settings: quinolone-sensitive strain; for MIC: Escherichia coli, ATCC25922, read-out: MIC for E. coli ATCC25922
Experimental: as §1, §2

P. aeruginosa ATCC27853 = settings: for MIC: Pseudomonas aeruginosa, ATCC27853, quinolone-sensitive strain, read-out: MIC for P. aeruginosa ATCC27853
Experimental: as §1, §2

| SMILES | MIC (K. pneumoniae A-651) [µg/mL] | MIC (E. coli ATCC25922) [µg/mL] | MIC (P. aeruginosa ATCC27853) [µg/mL] | MIC for K. Pneumoniae A-651 (K. pneumoniae A-651) [µg/mL] | MIC for E. coli ATCC25922 (E. coli ATCC25922) [µg/mL] | MIC for P. aeruginosa ATCC27853 (P. aeruginosa ATCC27853; quinolone-sensitive strain) [µg/mL] |
| --- | --- | --- | --- | --- | --- | --- |
| CC(C)(CO)c1ccc(C#Cc2cc3n(c2)C(=O)N(CC[C@](C)(C(=O)NO)S(C)(=O)=O)C3)cc1 [Example 9, (R)-N-hydroxy-4-(6-((4-(1-hydroxy-2-methylpropan-2-yl)phenyl)ethynyl)-3-oxo-1H-pyrrolo[1,2-c]imidazol-2(3H)-yl)-2-methyl-2-(methylsulfonyl)butanamide] | 0.5 (≈ 1.03 µM) | 0.25 (≈ 0.513 µM) | 0.5 (≈ 1.03 µM) |  |  |  |
| CC(C)(O)c1ccc(C#Cc2cc3n(c2)C(=O)N(CC[C@](C)(C(=O)NO)S(C)(=O)=O)C3)cc1 [Example 10, (R)-N-hydroxy-4-(6-((4-(2-hydroxypropan-2-yl)phenyl)ethynyl)-3-oxo-1H-pyrrolo[1,2-c]imidazol-2(3H)-yl)-2-methyl-2-(methylsulfonyl)butanamide] | 0.25 (≈ 0.528 µM) | 0.25 (≈ 0.528 µM) | 0.5 (≈ 1.06 µM) |  |  |  |
| C[C@@](CCN1Cc2cc(C#CC#C[C@H](O)CO)cn2C1=O)(C(=O)NO)S(C)(=O)=O [Example 11, (R)-4-(6-((S)-5,6-dihydroxyhexa-1,3-diyn-1-yl)-3-oxo-1H-pyrrolo[1,2-c]imidazol-2(3H)-yl)-N-hydroxy-2-methyl-2-(methylsulfonyl)butanamide] | 16 (≈ 37.8 µM) | 8 (≈ 18.9 µM) | 8 (≈ 18.9 µM) |  |  |  |
| C[C@@](CCN1Cc2cc(C#CC#CC[C@@H]3C[C@@H]3CO)cn2C1=O)(C(=O)NO)S(C)(=O)=O [Example 12, (R)-N-hydroxy-4-(6-(5-((1S,2S)-2-(hydroxymethyl)cyclopropyl)penta-1,3-diyn-1-yl)-3-oxo-1H-pyrrolo[1,2-c]imidazol-2(3H)-yl)-2-methyl-2-(methylsulfonyl)butanamide] | 0.25 (≈ 0.559 µM) | 0.25 (≈ 0.559 µM) | 0.25 (≈ 0.559 µM) |  |  |  |
| C[C@@H](O)c1ccc(C#Cc2cc3n(c2)C(=O)N(CC[C@](C)(C(=O)NO)S(C)(=O)=O)C3)cc1 [Example 13, (R)-N-hydroxy-4-(6-((4-((R)-1-hydroxyethyl)phenyl)ethynyl)-3-oxo-1H-pyrrolo[1,2-c]imidazol-2(3H)-yl)-2-methyl-2-(methylsulfonyl)butanamide] | 0.25 (≈ 0.544 µM) | 0.125 (≈ 0.272 µM) | 0.5 (≈ 1.09 µM) |  |  |  |
| C[C@H](O)c1ccc(C#Cc2cc3n(c2)C(=O)N(CC[C@](C)(C(=O)NO)S(C)(=O)=O)C3)cc1 [Example 14] |  |  |  | 0.25 | 0.125 | 1 |
| C[C@@](CCN1Cc2cc(C#CC#CC3(CO)CC3)cn2C1=O)(C(=O)NO)S(C)(=O)=O [Example 15, (R)-N-hydroxy-4-(6-((1-(hydroxymethyl)cyclopropyl)buta-1,3-diyn-1-yl)-3-oxo-1H-pyrrolo[1,2-c]imidazol-2(3H)-yl)-2-methyl-2-(methylsulfonyl)butanamide] | 1 (≈ 2.31 µM) | 0.5 (≈ 1.15 µM) | 1 (≈ 2.31 µM) |  |  |  |
| C[C@@](CCN1Cc2cc(C#Cc3ccc(CCO)cc3)cn2C1=O)(C(=O)NO)S(C)(=O)=O [Example 16, (R)-N-hydroxy-4-(6-((4-(2-hydroxyethyl)phenyl)ethynyl)-3-oxo-1H-pyrrolo[1,2-c]imidazol-2(3H)-yl)-2-methyl-2-(methylsulfonyl)butanamide] | 0.25 (≈ 0.544 µM) | ≤ 0.063 | 0.5 (≈ 1.09 µM) |  |  |  |
| C[C@@](CCN1Cc2cc(C#Cc3ccc([C@@H](O)CO)cc3)cn2C1=O)(C(=O)NO)S(C)(=O)=O [Example 17, (R)-4-(6-((4-((R)-1,2-dihydroxyethyl)phenyl)ethynyl)-3-oxo-1H-pyrrolo[1,2-c]imidazol-2(3H)-yl)-N-hydroxy-2-methyl-2-(methylsulfonyl)butanamide] | 1 (≈ 2.1 µM) | 1 (≈ 2.1 µM) | 1 (≈ 2.1 µM) |  |  |  |
| C[C@@](CCN1Cc2cc(C#Cc3ccc([C@H](O)CO)cc3)cn2C1=O)(C(=O)NO)S(C)(=O)=O [Example 18, (R)-4-(6-((4-((S)-1,2-dihydroxyethyl)phenyl)ethynyl)-3-oxo-1H-pyrrolo[1,2-c]imidazol-2(3H)-yl)-N-hydroxy-2-methyl-2-(methylsulfonyl)butanamide] | 1 (≈ 2.1 µM) | 0.5 (≈ 1.05 µM) | 1 (≈ 2.1 µM) |  |  |  |
| C[C@@](CCN1Cc2cc(C#Cc3ccc(C4(CO)CC4)cc3F)cn2C1=O)(C(=O)NO)S(C)(=O)=O [Example 19, (R)-4-(6-((2-fluoro-4-(1-(hydroxymethyl)cyclopropyl)phenyl)ethynyl)-3-oxo-1H-pyrrolo[1,2-c]imidazol-2(3H)-yl)-N-hydroxy-2-methyl-2-(methylsulfonyl)butanamide] | 0.5 (≈ 0.993 µM) | 0.25 (≈ 0.496 µM) | 1 (≈ 1.99 µM) |  |  |  |
| C[C@@](CCN1Cc2cc(C#Cc3ccc(N4CCN(CCO)C4=O)cc3)cn2C1=O)(C(=O)NO)S(C)(=O)=O [Example 20, (R)-N-hydroxy-4-(6-((4-(3-(2-hydroxyethyl)-2-oxoimidazolidin-1-yl)phenyl)ethynyl)-3-oxo-1H-pyrrolo[1,2-c]imidazol-2(3H)-yl)-2-methyl-2-(methylsulfonyl)butanamide] | 4 (≈ 7.36 µM) | 1 (≈ 1.84 µM) | 4 (≈ 7.36 µM) |  |  |  |
| C[C@@](CCN1Cc2cc(C#Cc3ccc(NC(=O)CO)c(F)c3)cn2C1=O)(C(=O)NO)S(C)(=O)=O [Example 21, (R)-4-(6-((3-fluoro-4-(2-hydroxyacetamido)phenyl)ethynyl)-3-oxo-1H-pyrrolo[1,2-c]imidazol-2(3H)-yl)-N-hydroxy-2-methyl-2-(methylsulfonyl)butanamide] | 1 (≈ 1.97 µM) | 0.25 (≈ 0.494 µM) | 1 (≈ 1.97 µM) |  |  |  |
| C[C@@](CCN1Cc2cc(C#Cc3ccc(OCCO)cc3)cn2C1=O)(C(=O)NO)S(C)(=O)=O [Example 22, (R)-N-hydroxy-4-(6-((4-(2-hydroxyethoxy)phenyl)ethynyl)-3-oxo-1H-pyrrolo[1,2-c]imidazol-2(3H)-yl)-2-methyl-2-(methylsulfonyl)butanamide] | 0.5 (≈ 1.05 µM) | 0.125 (≈ 0.263 µM) | 1 (≈ 2.1 µM) |  |  |  |
| C[C@@](CCN1Cc2cc(C#Cc3ccc(C4(CO)CC4)nc3)cn2C1=O)(C(=O)NO)S(C)(=O)=O [Example 23, (R)-N-hydroxy-4-(6-((6-(1-(hydroxymethyl)cyclopropyl)pyridin-3-yl)ethynyl)-3-oxo-1H-pyrrolo[1,2-c]imidazol-2(3H)-yl)-2-methyl-2-(methylsulfonyl)butanamide] | 4 (≈ 8.22 µM) | 1 (≈ 2.06 µM) | 4 (≈ 8.22 µM) |  |  |  |
| C[C@@](CCN1Cc2cc(C#Cc3ccc(C4(CO)CC4)cn3)cn2C1=O)(C(=O)NO)S(C)(=O)=O.O=CO [Example 24, (R)-N-hydroxy-4-(6-((5-(1-(hydroxymethyl)cyclopropyl)pyridin-2-yl)ethynyl)-3-oxo-1H-pyrrolo[1,2-c]imidazol-2(3H)-yl)-2-methyl-2-(methylsulfonyl)butanamide formate] | 32 | 8 | 8 |  |  |  |
| C[C@@](CCN1Cc2cc(C#Cc3ccc(CN4CCOCC4)cc3)cn2C1=O)(C(=O)NO)S(C)(=O)=O [Example 25, (R)-N-hydroxy-2-methyl-2-(methylsulfonyl)-4-(6-((4-(morpholinomethyl)phenyl)ethynyl)-3-oxo-1H-pyrrolo[1,2-c]imidazol-2(3H)-yl)butanamide] | 0.25 (≈ 0.486 µM) | 0.125 (≈ 0.243 µM) | 1 (≈ 1.94 µM) |  |  |  |
| C[C@@](CCN1Cc2cc(C#Cc3ccc(C4(CN5CCOCC5)CC4)cc3)cn2C1=O)(C(=O)NO)S(C)(=O)=O [Example 26, (R)-N-hydroxy-2-methyl-2-(methylsulfonyl)-4-(6-((4-(1-(morpholinomethyl)cyclopropyl)phenyl)ethynyl)-3-oxo-1H-pyrrolo[1,2-c]imidazol-2(3H)-yl)butanamide] | 1 (≈ 1.8 µM) | 1 (≈ 1.8 µM) | 4 (≈ 7.21 µM) |  |  |  |
